Where two headings read alike, the source gives them in different places.

Type in all cases: cell-based
Assay [1] deals with T1, Nurr1 (Homo sapiens, UniProt P43354).
T1 construct: 3 types of plasmid DNA, including DNA containing Nurr1-LBD and DNA with β-galactosidase, were transfected into BE(2)C cells; expressed in transfected cells; host or cells: BE(2)C cells
In words: Nurr1 activity, luciferase reporter analysis in transfected BE(2)C cells. Particulars: for Nurr1 activity (luciferase), multiple of 0.1% DMSO control: BE(2)C cells, 20 hours. (In a reporter assay the amount or activity of a reporter protein is the signal.)

Assay [2] deals with nitric oxide production in microglia BV-2 cells. In words: Inhibition of nitric oxide production in LPS-treated microglia BV-2 cells (Griess reagent). Particulars: Mus musculus. An excerpt: The death of cranial nerve cells due to an inflammatory reaction in a microglia cell has been reported as one of the main causes of degenerative brain diseases such as dementia and Parkinson's disease. (Sarkar S et al., Neurotoxicology, 44, 250-262 (2014); Bower J H et al., Neurology, 67, 494-496 (2006)). Accordingly, the inhibition activity on nitric oxide production, a representative inflammatory factor, was investigated for the compounds isolated from Example 2 in a microglia. Specifically, microglia BV-2 cells were put into a 96-well plate at 5×10^4 cells/well, and cultured for 2 days, followed by incubation with LPS ([…]) for 24 hours with the compound isolated in Example 2 above. The culture supernatant was measured for absorbance at 540 nm using the Griess reagent to quantify nitrite to investigate the amount of nitric oxide production. Minocyline was used as a positive control.
In general terms: The Griess reaction detects nitrite, a stable product of nitric oxide.

The target in assay [3] is T1, Nurr1. In words: Nurr1 activity, luciferase reporter analysis in transfected BE(2)C cells. To be noted: BE(2)C cells, 20 hours. An excerpt: As in Example 2, Nurr1 activity according to the concentration of the diterpene isolated from the extract of Daphne genkwa was confirmed through luciferase analysis.
Specifically, after synthesizing a vector in which the gene having the nucleotide sequence (5′-CTCGGAGGACAGTACTCCG-3 SEQ ID NO:1) to which the GLA4 gene can bind is repeated 8 times to the reporter gene, luciferase, is synthesized, 3 types of plasmid DNA, including DNA containing Nurr1-LBD and DNA with β-galactosidase, were transfected into BE(2)C cells. After 6 hours, the compounds 1 to 10 separated in Example 2 were treated according to the concentrations in Table 1 below. The cells thus treated were cultured in a 5% carbon dioxide incubator at 37° C. for 20 hours, and then luciferase analysis was performed. As a control, 0.1% DMSO was used, and at this time, the activity was increased by multiple, and Amodiaquine was used as a positive control.

Setting [4] is: BV-2 cells, LPS 24 hours, nitrite by Griess reagent, read-out: IC50, inhibition of nitric oxide production (Table 4).

T1 sequence (P43354 360-595 limits assumed): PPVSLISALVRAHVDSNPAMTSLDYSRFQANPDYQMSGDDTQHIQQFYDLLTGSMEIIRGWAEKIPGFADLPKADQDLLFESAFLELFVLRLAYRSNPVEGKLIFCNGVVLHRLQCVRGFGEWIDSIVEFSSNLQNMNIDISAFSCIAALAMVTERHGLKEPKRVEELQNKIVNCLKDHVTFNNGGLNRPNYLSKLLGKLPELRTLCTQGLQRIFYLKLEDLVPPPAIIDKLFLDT

On to `CCN(CC)Cc1cc(Nc2ccnc3cc(Cl)ccc23)ccc1O` [AQ, Amodiaquine, reference compound], for which the “Nurr1 activity (luciferase), multiple of 0.1% DMSO control” value (“Nurr1 activity … of 0.1% DMSO control” below) in assay [1] (Low concentration = 5 μM (Table 1)) was 0.9; in assay [1] (Mid concentration = 20 μM (Table 1)) it was 1.8.

In the case of `C=C(C)[C@@]12O[C@@]3(c4ccccc4)O[C@@H]1C1[C@@H]4O[C@]4(CO)[C@@H](O)[C@]4(O)C(=O)C(C)=CC4[C@@]1(O3)[C@H](C)[C@H]2OC(C)=O` (stereo partly drawn) [Formula 1, (2S,3aR,3cS,4aR,5S,5aS,8bR,9R,10R,10aS)-5,5a-dihydroxy-4a-(hydroxymethyl)-7,9-dimethyl-6-oxo-2-phenyl-10a-(prop-1-en-2-yl)-3a,3b,3c,4a,5,5a,8a,9,10,10a-decahydro-6H-2,8b-epoxyoxireno[2″,3″:6′,7′]azuleno[5′,4′:3,4]benzo[1,2-d][1,3]dioxol-10-yl acetate], the IC50 in assay [2] (setting [4]) amounted to 0.37 ± 0.15 µM. Besides, the “Nurr1 activity … of 0.1% DMSO control” value in assay [3] (High concentration = 1 μM (Table 1)) was found to be 1.7; in assay [3] (Low concentration = 0.01 μM (Table 1)), 1.0; in assay [3] (Mid concentration = 0.1 μM (Table 1)), 1.5.

As for `C=C(C)[C@]12C[C@@H](C)[C@@]34O[C@](c5ccccc5)(O[C@@H]1C3[C@H](O)[C@@](O)(COC(=O)c1ccccc1)[C@@H](O)[C@@]1(O)C4C[C@H](C)[C@@H]1O)O2` (stereo partly drawn) [Formula 3, ((2S,3aR,4S,5S,6S,6aR,7S,8S,9bR,10R,11aR)-4,5,6,6a,7-pentahydroxy-8,10-dimethyl-2-phenyl-11a-(prop-1-en-2-yl)dodecahydro-5H-2,9b-epoxyazuleno[5′,4′:3,4]benzo[1,2-d][1,3]dioxol-5-yl)methyl benzoate], the IC50 in assay [2] (BV-2, 24 h, read-out: IC50, inhibition of nitric oxide production (Table 4)) was determined as 1.06 ± 0.12 µM. The “Nurr1 activity … of 0.1% DMSO control” value in assay [3] (High concentration = 10 μM (Table 1)) was determined as 1.4; in assay [3] (Low concentration = 0.1 μM (Table 1)) it was 1.2; in assay [3] (Mid concentration = 1 μM (Table 1)), 1.4.

In the case of `C=C(C)[C@]12C[C@@H](C)[C@@]34OC(c5ccccc5)(O[C@@H]1C3[C@@H]1O[C@]1(CO)[C@@H](O)[C@]13OC(=O)O[C@H]1[C@@H](C)CC43)O2` (stereo partly shown) [Formula 10, genkwanin I], the “Nurr1 activity … of 0.1% DMSO control” value stood at 1.1 in assay [1] (High concentration = 100 μM (Table 1)), 1.8 in assay [1] (Low concentration = 1 μM (Table 1)) and 1.9 in assay [1] (Mid concentration = 10 μM (Table 1)). The IC50 in assay [2] (setting [4]) was determined as 7.79 ± 0.91 µM.

As to `CN(C)c1ccc(O)c2c1C[C@H]1C[C@H]3[C@H](N(C)C)C(O)=C(C(N)=O)C(=O)[C@@]3(O)C(O)=C1C2=O` [Minocycline, reference compound], in assay [2] (setting [4]), the IC50 was 21.3 ± 0.48 µM.

For the compound `C=C(C)[C@]12C[C@@H](C)[C@@]34O[C@](c5ccccc5)(O[C@@H]1C3[C@@H]1O[C@]1(CO)[C@@H](O)[C@@]1(O)C4C[C@H](C)[C@@H]1OC(=O)/C=C/C=C/CCCCC)O2` (stereo partly drawn) [compound 12, (2S,3aR,3cS,4aR,5S,5aS,6S,7S,8bR,9R,10aR)-5,5a-dihydroxy-4a-(hydroxymethyl)-7,9-dimethyl-2-phenyl-10a-(prop-1-en-2-yl)dodecahydro-6H-2,8b-epoxyoxireno[2″,3″:6′,7′]azuleno[5′,4′:3,4]benzo[1,2-d][1,3]dioxol-6-yl (2E,4E)-deca-2,4-dienoate], the “Nurr1 activity (Table 3), relative to control treatment” value is listed as 1.4 ± 0.18 in assay [1] (0.03 μM), “**1.29 ± 0.04” in assay [1] (0.1 μM), “*1.33 ± 0.06” in assay [1] (0.3 μM) and “*1.62 ± 0.21” in assay [1] (1 μM). In addition, in assay [2] (BV-2 cells, LPS 24 hours, nitrite by Griess reagent, read-out: IC50, inhibition of nitric oxide production (Table 5)), the IC50 came out at 2.3 µM.

Turning to `C=C(C)[C@@]12O[C@@]3(/C=C/C=C/CCCCC)O[C@@H]1[C@@H]1[C@@H]4O[C@]4(CO)[C@@H](O)[C@]4(O)C(=O)C(C)=C[C@H]4[C@@]1(O3)[C@H](C)[C@H]2OC(C)=O` [compound 15, prostratin Q], the “Nurr1 activity (Table 3), relative to control treatment” value was 1.17 ± 0.22 in assay [1] (0.03 μM), 1.28 ± 0.35 in assay [1] (0.1 μM), “**1.59 ± 0.08” in assay [1] (0.3 μM) and “*2.12 ± 0.37” in assay [1] (1 μM). Besides, the IC50 in assay [2] (BV-2, 24 h, read-out: IC50, inhibition of nitric oxide production (Table 5)) was 3.73 µM.

The term IC50 denotes the point on the concentration scale where inhibition reaches its midpoint.

The values above are taken from patent publication US12226395B2, “Composition for preventing or treating neurodegenerative diseases, containing diterpene-based compound” (KOREA RESEARCH INSTITUTE OF BIOSCIENCE AND BIOTECHNOLOGY, priority 2017, dated 2025).
